The structures appear in SMILES notation. Read-outs that look alike come from different tables or passages of the source.

Format in all cases: in vivo
The subject of experiment [1] is northern house mosquito female adults (Culex pipiens pallens). In words: Oil spray in (70 cm)^3 glass chamber, knock down of mosquitoes at 10 minutes (Experimental Example 3). As to conditions: oil sprays of Preparation example 1 (0.2 part in 100), 0.7 ml, 10 minutes after spraying, read-out: KD%. The text has this: Ten northern house mosquito female adults (Culex pipiens pallens) were liberated in a (70 cm)^3 glass chamber.

Experiment [2] has as its system housefly female adults (Musca domestica). The experiment in a line: Housefly female adults on treated filter paper in polyethylene cup, mortality after 48 hours (Experimental Example 1). Here is the method:
Ten percent emulsifiable concentrates were prepared as in the Preparation example 3.
At the bottom of a polyethylene cup of 5.5 cm in diameter was placed a filter paper of the same size. 0.75 Ml of a 200-fold aqueous dilute solution of each emulsifiable concentrate (corresponding to 500 ppm) was dropped on the filter paper, and 30 mg of sucrose as a food was uniformly placed. Ten housefly female adults (Musca domestica) were liberated in the cup which was then covered with a lid. After 48 hours, the dead and alive were examined to obtain mortality (4 replications).

Experiment [3] concerns housefly adults (Musca domestica). In words: Oil spray in (70 cm)^3 glass chamber, housefly adults, KT50 and mortality (Experimental Example 2). As to conditions: for mortality at 0.1 %: Musca domestica. As to the method:
(§1) 0.1 Part of each of the present compounds was dissolved in kerosene and made up to 100 parts with kerosene. Thus, the oil spray of each compound was obtained. Ten northern house mosquito female adults (Culex pipiens pallens) and 10 housefly adults (Musca domestica) were liberated in a (70 cm)^3 glass chamber. 0.7 ml of the oil spray was applied and the number of knocked down insects was counted with the lapse of time. The value of KT50 was obtained from the mean knock-down ratio of three replications according to Finney's graphic method. After 10 minutes, the knocked down insects were collected and transferred to a recovery container and fed with a 5% sugar solution. After 24 hours, the dead and alive were examined.

The subject of experiment [4] is northern house mosquito female adults (Culex pipiens pallens). The experiment in a line: Oil spray in (70 cm)^3 glass chamber, northern house mosquito female adults, KT50 and mortality (Experimental Example 2). As to conditions: for mortality at 0.1 %: Culex pipiens. Here is the method: as §1
Experiment [5] concerns adult German cockroaches (Blattella germanica). In words: Flushing out of German cockroaches from shelter (Experimental Example 8). As to conditions: 0.7 ml of 0.1% oil spray. Here is the method: Ten adult German cockroaches (Blattella germanica) were liberated in a plywood-made trigonal prism like shelter with diet and water. The shelter containing cockroaches was made stand opening upward in a glass chamber (70 cm)^3, and 0.7 ml of 0.1% oil spray of each compound was applied to the chamber. The number of flushed out insects was counted with the lapse of time.

Where [6] appears, read: 200-fold aqueous dilution of emulsifiable concentrate (500 ppm), 48 hours, housefly female adults, read-out: Mortality.
[7] abbreviates: housefly adult, 0.1% oil spray, 0.7 ml.
Setting [8] is: northern house mosquito female adult, 0.1% oil spray, 0.7 ml.

As for `C=CCN1CC(=O)N(COC(=O)C(c2ccc(Cl)cc2)C(C)C)C1=O` (stereo not drawn) [Present compound (20), 1-Allyl-3-hydantoinylmethyl α-(4-chlorophenyl)isovalerate], in experiment [1], the pest or weed control at 0.2 % was found to be 85%.

One may read the mortality as the percentage killed. On to `C=CCN1CC(=O)N(COC(=O)C(c2ccc(Br)cc2)C(C)C)C1=O` (stereo not drawn) [Present compound (18), 1-Allyl-3-hydantoinylmethyl α-(4-bromophenyl)isovalerate], for which the mortality at 500 µg/mL in experiment [2] (setting [6]) was determined as 100%. Besides, the pest or weed control at 0.2 % in experiment [1] was determined as 90%.

Turning to `C#CCN1CC(=O)N(COC(=O)[C@@H]2[C@@H](C=C(C)C)C2(C)C)C1=O` [Present compound (7), 1-Propargyl-3-hydantoinylmethyl chrysanthemate], the mortality at 500 µg/mL in experiment [2] (48 h) amounted to 100%. Also, the mortality at 0.1 % is 10% in experiment [3] (24 h) and 100% in experiment [4] (24 h). The results for the KT50 in experiment [3] (setting [7]) and in experiment [4] (setting [8]) were 72 s and 30 s, respectively.

For `C#CCN1CC(=O)N(COC(=O)C(c2ccc(Cl)c(Cl)c2)C(C)C)C1=O` (stereo not drawn) [Present compound (19), 1-Propargyl-3-hydantoinylmethyl α-(3,4-dichlorophenyl)isovalerate], the pest or weed control at 0.2 % in experiment [1] was 85%.

Take `C#CCN1C(=O)N(COC(=O)C2C(C=C(Cl)Cl)C2(C)C)C(=O)C1C` (stereo not drawn) [Present compound (22), 1-Propargyl-5-methyl-3-hydantoinylmethyl 2,2-dimethyl-3-(2,2-dichlorovinyl)cyclopropanecarboxylate]: the figures for the mortality at 0.1 % in experiment [3] (24 h) and in experiment [4] (24 h) were 20% and 85%, respectively. Further, the KT50 in experiment [3] (setting [7]) stood at 114 s; in experiment [4] (setting [8]) it was 75 s.

Consider `C#CCN1CC(=O)N(COC(=O)C(c2ccc(C)cc2)C(C)C)C1=O` (stereo not drawn) [Present compound (15), 1-Propargyl-3-hydantoinylmethyl α-(4-methylphenyl)isovalerate], for which the mortality at 500 µg/mL in experiment [2] (setting [6]) was found to be 90%. In addition, in experiment [1], the pest or weed control at 0.2 % was 90%.

Regarding `C#CCN1C(=O)CN(COC(=O)C2C(C=C(Cl)Cl)C2(C)C)C1=O` (stereo not drawn) [Present compound (4), 3-Propargyl-1-hydantoinylmethyl 2,2-dimethyl-3-(2,2-dichlorovinyl)cyclopropanecarboxylate], the mortality at 500 µg/mL in experiment [2] (48 h) worked out at 100%. Also, the figures for the mortality at 0.1 % in experiment [3] (24 h) and in experiment [4] (24 h) were 30% and 85%, respectively. The results for the KT50 in experiment [3] (setting [7]) and in experiment [4] (setting [8]) were 280 s and 50 s, respectively.

Turning to `CNC(=O)Oc1ccccc1OC(C)C` [Propoxur, reference compound], the Flushing out in experiment [5] (38") is recorded as 0%; in experiment [5] (75") it was 0%; in experiment [5] (150"), 0%; in experiment [5] (300"), 0%; in experiment [5] (600"), 5%.

In experiment [2] (48 h), `C#CCN1CC(=O)N(COC(=O)[C@@H]2[C@H](C=C(Br)Br)C2(C)C)C1=O` [Present compound (11) (d-cis isomer), 1-Propargyl-3-hydantoinylmethyl 2,2-dimethyl-3-(2,2-dibromovinyl)cyclopropanecarboxylate] displayed a mortality at 500 µg/mL of 100%. Moreover, the results for the mortality at 0.1 % in experiment [3] (24 h) and in experiment [4] (24 h) were 10% and 95%, respectively. Further, the values for the KT50 in experiment [3] (setting [7]) and in experiment [4] (setting [8]) were 96 s and 38 s, respectively.

In turn, `C#CCN1CC(=O)N(COC(=O)[C@@H]2[C@@H](C=C(Cl)Cl)C2(C)C)C1=O` [Present compound (1) (d-trans isomer), 1-Propargyl-3-hydantoinylmethyl 2,2-dimethyl-3-(2,2-dichlorovinyl)cyclopropanecarboxylate] had a mortality at 500 µg/mL in experiment [2] (48 h) of 100%. The mortality at 0.1 % in experiment [3] (24 h) is 80%; in experiment [4] (24 h), 100%. For the same compound, the results for the KT50 in experiment [3] (setting [7]) and in experiment [4] (setting [8]) were 60 s and 30 s, respectively.

Turning to `CCCN1CC(=O)N(COC(=O)C2C(C=C(Cl)Cl)C2(C)C)C1=O` (stereo not drawn) [Present compound (3), 1-Propyl-3-hydantoinylmethyl 2,2-dimethyl-3-(2,2-dichlorovinyl)cyclopropanecarboxylate], the pest or weed control at 0.2 % in experiment [1] stood at 100%. In addition, the Flushing out stood at 30% in experiment [5] (38"); 45% in experiment [5] (75"); 45% in experiment [5] (150"); 50% in experiment [5] (300"); 65% in experiment [5] (600").

`C#CCN1CC(=O)N(COC(=O)[C@@H]2[C@@H](C=C(Br)Br)C2(C)C)C1=O` [Present compound (11) (d-trans isomer), 1-Propargyl-3-hydantoinylmethyl 2,2-dimethyl-3-(2,2-dibromovinyl)cyclopropanecarboxylate]: the mortality at 500 µg/mL in experiment [2] (48 h) was 100%. Besides, the values for the mortality at 0.1 % in experiment [3] (24 h) and in experiment [4] (24 h) were 30% and 85%, respectively. The KT50 in experiment [3] (setting [7]) was found to be 78 s; in experiment [4] (setting [8]) it was 35 s.

For `C#CCN1C(=O)N(COC(=O)C2C(C=C(Cl)Cl)C2(C)C)C(=O)C1CC` (stereo not drawn) [Present compound (24), 1-Propargyl-5-ethyl-3-hydantoinylmethyl 2,2-dimethyl-3-(2,2-dichlorovinyl)cyclopropanecarboxylate], the pest or weed control at 0.2 % in experiment [1] came to 85%.

Consider `C#CCN1CC(=O)N(COC(=O)C(c2ccc(OC)cc2)C(C)C)C1=O` (stereo not drawn) [Present compound (17), 1-Propargyl-3-hydantoinylmethyl α-(4-methoxyphenyl)isovalerate], for which, in experiment [2] (setting [6]), the mortality at 500 µg/mL was found to be 95%. Also, the mortality at 0.1 % in experiment [3] (housefly adult, 0.1% oil spray, 0.7 ml, after 24 hours, read-out: Mortality) is 35%; in experiment [4] (northern house mosquito female adult, 0.1% oil spray, 0.7 ml, after 24 hours, read-out: Mortality), 75%. In addition, the values for the KT50 in experiment [3] (setting [7]) and in experiment [4] (setting [8]) were 280 s and 140 s, respectively.

Take `C#CCN1CC(=O)N(COC(=O)C(c2ccc3c(c2)OCO3)C(C)C)C1=O` (stereo not drawn) [Present compound (16), 1-Propargyl-3-hydantoinylmethyl α-(3,4-methylenedioxyphenyl)isovalerate]: the mortality at 500 µg/mL in experiment [2] (setting [6]) turned out to be 90%. The pest or weed control at 0.2 % in experiment [1] stood at 100%.

As to `CC(C)=CC1C(C(=O)OCN2C(=O)C3=C(CCCC3)C2=O)C1(C)C` (stereo not drawn) [Tetramethrin, N-(chrysanthemoxymethyl)-3,4,5,6-tetrahydrophthalimide, reference compound], the mortality at 0.1 % in experiment [3] (24 h) is 20%; in experiment [4] (24 h), 45%. Also, the values for the KT50 in experiment [3] (setting [7]) and in experiment [4] (setting [8]) were 372 s and 162 s, respectively.

Consider `C#CCN1C(=O)CN(COC(=O)C(c2ccc(F)cc2)C(C)C)C1=O` (stereo not drawn) [Present compound (21), 3-Propargyl-1-hydantoinylmethyl α-(4-fluorophenyl)isovalerate], for which the mortality at 500 µg/mL in experiment [2] (setting [6]) was determined as 90%. The pest or weed control at 0.2 % in experiment [1] is 90%.

Consider `C#CCN1C(=O)N(COC(=O)C2C(C=C(C)C)C2(C)C)C(=O)C1C` (stereo not drawn) [Present compound (23), 1-Propargyl-5-methyl-3-hydantoinylmethyl chrysanthemate], for which the pest or weed control at 0.2 % in experiment [1] worked out at 100%.

In turn, `C#CCN1CC(=O)N(COC(=O)[C@@H]2[C@@H](C=C(C)C=C)C2(C)C)C1=O` (relative stereo) [Present compound (10), 1-Propargyl-3-hydantoinylmethyl 2,2-dimethyl-3-(2-methylbutadienyl)cyclopropanecarboxylate] yielded a mortality at 500 µg/mL in experiment [2] (48 h) of 95%. Further, the pest or weed control at 0.2 % in experiment [1] was 90%.

In experiment [2] (48 h), `C#CCN1CC(=O)N(COC(=O)C2C(C=C(Cl)Cl)C2(C)C)C1=O` (racemic) [Present compound (1) (dl-cis,trans isomer), 1-Propargyl-3-hydantoinylmethyl 2,2-dimethyl-3-(2,2-dichlorovinyl)cyclopropanecarboxylate] had a mortality at 500 µg/mL of 100%. Also, the results for the mortality at 0.1 % in experiment [3] (24 h) and in experiment [4] (24 h) were 60% and 90%, respectively. In addition, the KT50 was 96 s in experiment [3] (setting [7]) and 69 s in experiment [4] (setting [8]). In addition, the Flushing out in experiment [5] (38") amounted to 35%; in experiment [5] (75") it was 65%; in experiment [5] (150"), 75%; in experiment [5] (300"), 85%; in experiment [5] (600"), 95%.

In the case of `CC(C)=CC1C(C(=O)OCc2coc(Cc3ccccc3)c2)C1(C)C` (stereo not drawn) [Resmethrin, 5-benzyl-3-furylmethyl chrysanthemate, reference compound], the pest or weed control at 0.2 % in experiment [1] was 50%.

Take `C#CCN1CC(=O)N(COC(=O)[C@@H]2[C@@H](C=NOC)C2(C)C)C1=O` [Present compound (12), 1-Propargyl-3-hydantoinylmethyl 2,2-dimethyl-3-methoxyiminomethylcyclopropanecarboxylate]: in experiment [1], the pest or weed control at 0.2 % was 100%.

These data come from US4176189A, “Insecticidal and acaricidal hydantoin N-methylol esters” (Sumitomo Chemical Company, Limited, priority 1977, dated 1979).
